# Measurements as given in patent publication US9346832B2, “Gold complexes for use in the treatment of cancer” (University of Kwazulu-Natal, priority 2010, dated 2016).
# “Also recorded” adds a separate entry of the source. Like-named read-outs stand apart in the source and are kept apart here.
# How the values were obtained:
# [1] = system: 60 human cancer cell lines; test: NCI-60 one-dose screen; format: cell-based; conditions: single dose 10 μM
# Protocol: The gold(III) complexes of this invention were screened by the National Cancer Institute (NCI, USA) against their panel of 60 different human cancer cell lines. These screens initially entail a one-dose test for the compound at a high concentration (10 μM; e.g. FIGS. 5, 6 and 7). Compounds with a good cytotoxicity profile in the one-dose screen are then subjected to a five-dose screen for the full panel of sixty human cancer cell lines (the so-called 5-dose NCI-60 screen). In the full five-dose screen, the compound concentration is varied in five doses from 10^−8 M to 10^−4 M in order to establish a dose-response function of percentage cell growth versus the concentration of the test agent. […] Similar data will shortly be available for compounds 1.1Y^1b and 1.5Y^1a as these derivatives are in 5-dose screens currently at the NCI.
# The results of one-dose NCI-60 screens are noteworthy and merit some discussion as they quickly indicate activity profiles, cell-line specificity, and general cytotoxicity for the test agents across multiple human cancer cell lines. FIGS. 5, 6, and 7 set out the one-dose screening results for MA_AuPr (FIG. 5), KA_AumacroPr (FIG. 6), and KA_AuMelmPr (FIG. 7) obtained by the NCI. These three compounds are the parent derivatives that are representative of the three new types of gold(III) Schiff base chelate relevant to this invention. All other compounds synthesized as part of this invention have been similarly analyzed.
# [2] = format: in vivo, mouse
# Protocol: FIG. 22 is a plot showing the mouse survival data as a function of metallodrug dose for MA_AuPr.
# A single dose of the compound was administered by injection over the first week followed by two injections per week per mouse for a total period of 50 days.
# plasma protein = test: Plasma protein binding; format: in vitro ADME; conditions: LC-MS
# Text: This is why binding to DNA of the intact chelate occurs (FIGS. 14 and 20). However, it is noteworthy that hydrolysis of a Au(III)-Npyrrole bond is a reaction that may be catalyzed by enzymes in plasma and could account for the plasma instability of MA_AuPr.
# Genotoxicity = test: Genotoxicity
# Text: First, the compound is not genotoxic (i.e. mutagenic).
# [3] = system: HepG2 human hepatocellular carcinoma cells; test: HepG2 cytotoxicity / cell health parameters; format: cell-based
# Text: The data for MA_AuPr in Scheme 22 are consistent with a cytotoxic compound capable of inducing apoptosis (programmed cell death) and, indeed, a compound that performs better than the control drug. […] Other cell health parameters which respond are a loss of total cells per well (indicating toxicity due to necrosis, apoptosis or a reduction in cellular proliferation), an increase in nuclear area (indicating necrosis or G2 cell cycle arrest), an increase in cytochrome c release (implying activation of a signalling cascade leading to apoptosis). The latter is particularly relevant as we may rule out cell death by necrosis in the case of MA_AuPr. The mechanism of action of the compound thus leads to cell cycle arrest in the G2 phase and the induction of apoptosis (highly desirable for an anticancer drug). […] Since the compound induces cytochrome c release, cytotoxicity involves apoptosis.
smiles,measurement,setting,value
"C1=NCCCN=Cc2ccc[n]2[Au+][n]2cccc21.[Cl-] [MA_AuPr, 2,2′-{propane-1,3-diylbis[nitrilo(E)methylylidene]}bis(pyrrol-1-ido)gold(III) chloride]",one-dose screening result,[1],"leukemia, breast, and colon cancer cell lines are inherently more susceptible"
same,health and weight of mice,"[2]; 1 to 30 μmol/kg, 50 days",remained healthy and showed no abnormal weight changes
same,acute toxicity,"[2]; mice, injection, 1 to 30 μmol/kg doses",> 30 μmol/kg/week
same,chronic toxicity,"[2]; mice, two injections per week, 50 days",> 60 μmol/kg/week
same,Plasma protein binding,plasma protein,did not bind to plasma protein; also recorded: No binding - drug
same,Genotoxicity,Genotoxicity,not genotoxic; also recorded: Negative
same,Cytotoxicity (Hep-G2),[3],Strong positive
same,Cytochrome C release MEC,[3]; HepG2,19 µM
same,DNA structure MEC,[3]; HepG2,>19 µM
same,Mitochondrial mass MEC,[3]; HepG2,2.1 µM
same,Mitochondrial membrane potential MEC,[3]; HepG2,6.2 µM
same,Nuclear Area MEC,[3]; HepG2,6.2 µM
same,Cell Loss MEC,"[3]; HepG2, minimum effective concentration",<0.23 µM
same,AC50,"[3]; HepG2, read-out: Cell Loss AC50",7.4 µM
same,AC50,"[3]; HepG2, read-out: Cytochrome C release AC50",33 µM
same,AC50,"[3]; HepG2, read-out: Membrane permeability AC50",16 µM
same,AC50,"[3]; HepG2, read-out: Mitochondrial mass AC50",41 µM
same,AC50,"[3]; HepG2, read-out: Mitochondrial membrane potential AC50",> 500 µM
same,AC50,"[3]; HepG2, read-out: Nuclear Area AC50",17 µM
